Laboratory results taken from patent US9981960B2, “Pyrrolidine compound and application as melanocortin receptor agonist” (MITSUBISHI TANABE PHARMA CORPORATION, priority 2014, dated 2018).

Target: T1, Human MC1R (Homo sapiens, UniProt Q01726)
T1 construct: endogenous in cells; host or cells: human melanoma cell line HBL
Assay: MCR agonist measurement (cAMP measurement), human MC1R agonist activity in human melanoma cell line HBL
Format: cell-based
Settings: HBL cells; for EC50: 37° C. for 30 minutes, intracellular cAMP by fluorescence method; for Human MC1R IA %: Intrinsic Activity, vehicle cAMP = 0%, αMSH at 10^-6 M = 100%
Experimental: (1) Method for Culturing Cells
Human MC1R agonist activity measurement was carried out by using human melanoma cell line HBL. Culture of HBL: F-10 Nutrient Mixture containing 10% FCS and Penicillin-streptomycin was used in the culture.
(2) cAMP Assay and Data Calculation
Each compound solution having each concentration was mixed with cAMP assay buffer (HBSS (Hank's Balanced Salt Solution) containing 10 mM HEPES and 0.1% BSA), and dispensed into 96 well plate. HBL was suspended in cAMP assay buffer containing 0.5 mM IBMX so that the concentrate became 5×10^4/mL, dispensed into the above 96 well plate, then mixed, left to stand at 37° C. for 30 minutes, and then the intracellular […] concentration was measured by fluorescence method using Envision (ex. 320 nm, em. 590 nm and 665 nm).

T1 sequence (Q01726 whole entry): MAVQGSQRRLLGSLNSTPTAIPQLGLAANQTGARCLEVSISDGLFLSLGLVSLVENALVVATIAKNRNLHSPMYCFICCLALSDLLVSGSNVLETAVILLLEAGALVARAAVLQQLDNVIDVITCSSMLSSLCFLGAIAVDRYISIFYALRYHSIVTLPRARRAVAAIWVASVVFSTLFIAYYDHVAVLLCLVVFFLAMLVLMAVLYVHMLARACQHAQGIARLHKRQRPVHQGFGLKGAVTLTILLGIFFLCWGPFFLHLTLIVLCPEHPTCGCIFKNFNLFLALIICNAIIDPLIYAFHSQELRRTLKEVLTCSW

SMILES	EC50	Human MC1R IA %
COc1ccc([C@@H]2CN(C(C)(C)C)C[C@@]2(F)C(=O)N2CCC(c3ccc(C(F)(F)F)cc3-c3ccc(C(=O)O)cc3)CC2)cc1 [Example 77]	69 nM	83%
COC[C@H]1CN(C(=O)[C@]2(F)CN(C3CCOCC3)C[C@H]2c2ccc(OC)cc2)C[C@@H]1c1ccc(C(F)(F)F)cc1N1CCC(C(=O)O)CC1 [Example 95]	12 nM	72%
COc1ccc([C@@H]2CN([C@H]3CC[C@H](OC)CC3)C[C@@]2(F)C(=O)N2C[C@H](c3ccc(C(F)(F)F)cc3N3CCC(C(=O)O)CC3)[C@@H](F)C2)cc1 [Example 148]	3.6 nM	93%
COC[C@H]1CN(C(=O)[C@]2(F)CN(c3ccc(C)nn3)C[C@H]2c2ccc(OC)cc2)C[C@@H]1c1ccc(C(F)(F)F)cc1N1CCC(C(=O)O)CC1 [Example 63]	24 nM	92%
COC[C@@H]1C[C@@H](c2ccc(C(F)(F)F)cc2N2CCC(C(=O)O)CC2)CN1C(=O)[C@]1(F)CN(C2CCC2)C[C@H]1c1ccc(OC)cc1 [Example 139]	0.8 nM	80%
COC[C@H]1CN(C(=O)[C@]2(F)CN(C3CCCC3)C[C@H]2c2ccc(OC)cc2)C[C@@H]1c1ccc(C(F)(F)F)cc1N1CCC(C(=O)N2CCC[C@@H]2C(=O)O)CC1 [Example 270]	5.6 nM	82%
COc1ccc([C@@H]2CN(C(C)(C)C)C[C@@]2(F)C(=O)N2CC(c3ccc(C(F)(F)F)cc3N3CCC(C(=O)O)CC3)C2)cc1 [Example 84]	40 nM	119%
COC[C@@H]1C[C@@H](c2ccc(C(F)(F)F)cc2N2CCC(C(=O)O)CC2)CN1C(=O)[C@]1(F)CN([C@H]2CC[C@H](OC)CC2)C[C@H]1c1ccc(OC)cc1 [Example 135]	0.47 nM	96%
COc1ccc([C@@H]2CN(C(C)(C)C)C[C@@]2(F)C(=O)N2CCC(c3ccc(C(F)(F)F)cc3OCCCc3noc(=O)[nH]3)CC2)cc1.Cl [Example 295, 3-{3-[2-(1-{[(3R,4R)-1-tert-butyl-3-fluoro-4-(4-methoxyphenyl)pyrrolidin-3-yl]carbonyl}piperidin-4-yl)-5-(trifluoromethyl)phenoxy]propyl}-1,2,4-oxadiazole-5(4H)-one hydrochloride]	31 nM	91%
COC[C@H]1CN(C(=O)[C@]2(F)CN(C3CCCC3)C[C@H]2c2ccc(C)cc2)C[C@@H]1c1ccc(C(F)(F)F)cc1N1CCC(C(=O)O)CC1 [Example 22]	17 nM	74%
COC[C@H]1CN(C(=O)[C@]2(F)CN([C@H]3CC[C@H](OC)CC3)C[C@H]2c2ccc(OC)cc2)C[C@@H]1c1ccc(C(F)(F)F)cc1N1CCC(C(=O)O)CC1 [Example 99]	4.7 nM	117%
COC[C@@H]1C[C@@H](c2ccc(C(F)(F)F)cc2N2CCC(C(=O)O)CC2)CN1C(=O)[C@]1(OC)CN([C@H]2CC[C@H](OC(C)C)CC2)C[C@H]1c1ccc(OC)cc1 [Example 160]	0.67 nM	106%
COc1ccc([C@@H]2CN(C3CCCC3)C[C@@]2(F)C(=O)N2CCCC(c3ccc(C(F)(F)F)cc3N3CCC(C(=O)O)CC3)C2)cc1 (single isomer, unassigned) [Example 291]	734 nM	67%
COc1ccc([C@@H]2CN(C3CCCC3)C[C@@]2(F)C(=O)N2CCC=C(c3ccc(C(F)(F)F)cc3N3CCC(C(=O)O)CC3)C2)cc1 [Example 163]	20 nM	36%
COc1ccc([C@@H]2CN(C(C)(C)C)C[C@@]2(F)C(=O)N2CCC(c3ccc(C(F)(F)F)cc3[C@H]3C[C@H](C(=O)O)C3)CC2)cc1 [Example 177]	7.4 nM	80%
CCO[C@H]1CC[C@H](N2C[C@@H](c3ccc(OC)cc3)[C@](OC)(C(=O)N3C[C@H](c4ccc(C(F)(F)F)cc4N4CCC(C(=O)O)CC4)[C@@](F)(COC)C3)C2)CC1 [Example 141]	3.6 nM	105%
COC[C@H]1CN(C(=O)[C@]2(F)CN(C3CCOCC3)C[C@H]2c2ccc(OC)cc2)C[C@@H]1c1ccc(C(F)(F)F)cc1N1CCC(C#N)CC1.Cl.Cl [Example 278, 1-{2-[(3S,4R)-1-{[(3R,4R)-3-fluoro-4-(4-methoxyphenyl)-1-(tetrahydro-2H-pyran-4-yl)pyrrolidin-3-yl]carbonyl}-4-(methoxymethyl)pyrrolidin-3-yl]-5-(trifluoromethyl)phenyl}piperidine-4-carbonitrile dihydrochloride]	39 nM	46%
COc1ccc([C@@H]2CN(C3CCOC3)C[C@@]2(F)C(=O)N2CCC(c3ccc(C(F)(F)F)cc3N3CCC(C(=O)O)CC3)CC2)cc1 (stereo partly shown) [Example 289]	124 nM	55%

SMILES	EC50	Human MC1R IA %
COc1ccc([C@@H]2CN(C(C)(C)C)C[C@@]2(F)C(=O)N2CCC(c3ccc(C(F)(F)F)cc3N3CCN(C(C)=O)CC3)CC2)cc1.Cl.Cl [Example 282, 1-{4-[2-(1-{[(3R,4R)-1-tert-butyl-3-fluoro-4-(4-methoxyphenyl)pyrrolidin-3-yl]carbonyl}piperidin-4-yl)-5-(trifluoromethyl)phenyl]piperazin-1-yl}ethanone dihydrochloride]	27 nM	79%
COC[C@@H]1C[C@@H](c2ccc(C(F)(F)F)cc2N2CCC(C(=O)O)CC2)CN1C(=O)[C@]1(F)CN(c2ccnc(C)n2)C[C@H]1c1ccc(OC)cc1 [Example 67]	2 nM	78%
COc1ccc([C@@H]2CN(C(C)(C)C)C[C@@]2(F)C(=O)N2CC[C@@H](c3ccc(C(F)(F)F)cc3N3CCC(C(=O)O)CC3)C2)cc1.Cl.Cl [Example 286a, 1-{2-[(3S)-1-{[(3R,4R)-1-tert-butyl-3-fluoro-4-(4-methoxyphenyl)pyrrolidin-3-yl]carbonyl}pyrrolidin-3-yl]-5-(trifluoromethyl)phenyl}piperidine-4-carboxylic acid dihydrochloride]	4.4 nM	105%
COC[C@H]1CN(C(=O)[C@]2(F)CN(C3CCCC3)C[C@H]2c2ccc(OC)cc2)C[C@@H]1c1ccc(C(F)(F)F)cc1N1CCC(C(=O)N(C)C)CC1 [Example 248]	5.1 nM	92%
COc1ccc([C@@H]2CN(C3CCCC3)C[C@@]2(F)C(=O)N2CC(c3ccc(C(F)(F)F)cc3N3CCC(C(=O)O)CC3)C(F)(F)C2)cc1 (single isomer, unassigned) [Example 294]	804 nM	81%
COc1ccc([C@@H]2CN([C@H]3CC[C@H](OC)CC3)C[C@@]2(F)C(=O)N2CC[C@@H](c3ccc(F)cc3N3CCC(C(=O)O)CC3)C2)cc1 [Example 218]	4.3 nM	110%
COc1ccc([C@@H]2CN(C(C)(C)C)C[C@@]2(F)C(=O)N2CCC(c3ccc(C(F)(F)F)cc3C(N)=O)CC2)cc1 [Example 267]	80 nM	112%
COc1ccc([C@@H]2CN(C(C)(C)C)C[C@@]2(F)C(=O)N2CCC(c3ccc(C(F)(F)F)cc3N3CCC(C(=O)N(C)C)CC3)CC2)cc1 [Example 234]	7.3 nM	105%
COc1ccc([C@@H]2CN(C3CCN(C(CF)CF)CC3)C[C@@]2(F)C(=O)N2CC[C@@H](c3ccc(F)cc3N3CCC(C(=O)O)CC3)C2)cc1 [Example 220]	2.8 nM	75%
CCO[C@H]1CC[C@H](N2C[C@@H](c3ccc(OC)cc3)[C@](OC)(C(=O)N3C[C@H](c4ccc(C(F)(F)F)cc4N4CCC(C(=O)O)CC4)C[C@H]3COC)C2)CC1 [Example 146]	0.75 nM	118%
COc1ccc([C@@H]2CN(C3CCOCC3)C[C@@]2(F)C(=O)N2CC[C@@H](c3ccc(C(F)(F)F)cc3N3CCC(C(=O)O)CC3)C2)cc1 [Example 215]	14 nM	59%
COc1ccc([C@@H]2CN(C(C)(C)C)C[C@@]2(F)C(=O)N2CC(c3ccc(C(F)(F)F)cc3N3CCC(C(=O)N(C)C)CC3)C2)cc1 [Example 249]	37 nM	149%
COc1ccc([C@@H]2CN([C@H]3CC[C@H](OC)CC3)C[C@@]2(F)C(=O)N2CC[C@@H](c3ccc(C(F)(F)F)cc3N3CCC(C(=O)O)CC3)C2)cc1 [Example 213]	0.89 nM	88%
COc1ccc([C@@H]2CN(C(C)(C)C)C[C@@]2(F)C(=O)N2CCC(c3ccc(C(F)(F)F)cc3N3CCN(C(N)=O)CC3)CC2)cc1.Cl.Cl [Example 284, 4-[2-(1-{[(3R,4R)-1-tert-butyl-3-fluoro-4-(4-methoxyphenyl)pyrrolidin-3-yl]carbonyl}piperidin-4-yl)-5-(trifluoromethyl)phenyl]piperazine-1-carboxamide dihydrochloride]	14 nM	81%
CCc1ccc([C@@H]2CN(C(C)(C)C)C[C@@]2(F)C(=O)N2CCC(c3ccc(C(F)(F)F)cc3N3CCC(C(=O)O)CC3)CC2)cc1 [Example 91]	44 nM	74%
COc1ccc([C@@H]2CN(C(C)(C)C)C[C@@]2(F)C(=O)N2CCC(c3ccc(C(F)(F)F)cc3OCCCC(=O)NS(C)(=O)=O)CC2)cc1 [Example 273]	13 nM	79%
COC[C@@]1(F)CN(C(=O)[C@]2(F)CN([C@H]3CC[C@H](OC)CC3)C[C@H]2c2ccc(OC)cc2)C[C@@H]1c1ccc(C(F)(F)F)cc1N1CCC(C(=O)O)CC1 [Example 120]	8.8 nM	109%
